Results: US20100105636A1, “T-TYPE CALCIUM CHANNEL BLOCKER” (Nissan Chemical Industries, Ltd., priority 2003, published 2010)

What was measured:
Type in all cases: cell-based
T-type Ca channel (α1G) [1] = target: T1, T-type Ca channel (α1G) (Homo sapiens, UniProt O43497); assay: Effect on T-type Ca channel expressed in BHK cells (whole cell patch clamp), Pharmacological Test Example 1; details: BHK cells expressing T-type Ca channel (α1G), depolarization pulse −20 mV from −80 mV, 5 minutes after application, average value vs vehicle control (100%), read-out: Inhibition (%) of Ca current
T1 construct: expressed in transfected cells; host or cells: BHK (baby hamster kidney) cells
T1 sequence (O43497 whole entry): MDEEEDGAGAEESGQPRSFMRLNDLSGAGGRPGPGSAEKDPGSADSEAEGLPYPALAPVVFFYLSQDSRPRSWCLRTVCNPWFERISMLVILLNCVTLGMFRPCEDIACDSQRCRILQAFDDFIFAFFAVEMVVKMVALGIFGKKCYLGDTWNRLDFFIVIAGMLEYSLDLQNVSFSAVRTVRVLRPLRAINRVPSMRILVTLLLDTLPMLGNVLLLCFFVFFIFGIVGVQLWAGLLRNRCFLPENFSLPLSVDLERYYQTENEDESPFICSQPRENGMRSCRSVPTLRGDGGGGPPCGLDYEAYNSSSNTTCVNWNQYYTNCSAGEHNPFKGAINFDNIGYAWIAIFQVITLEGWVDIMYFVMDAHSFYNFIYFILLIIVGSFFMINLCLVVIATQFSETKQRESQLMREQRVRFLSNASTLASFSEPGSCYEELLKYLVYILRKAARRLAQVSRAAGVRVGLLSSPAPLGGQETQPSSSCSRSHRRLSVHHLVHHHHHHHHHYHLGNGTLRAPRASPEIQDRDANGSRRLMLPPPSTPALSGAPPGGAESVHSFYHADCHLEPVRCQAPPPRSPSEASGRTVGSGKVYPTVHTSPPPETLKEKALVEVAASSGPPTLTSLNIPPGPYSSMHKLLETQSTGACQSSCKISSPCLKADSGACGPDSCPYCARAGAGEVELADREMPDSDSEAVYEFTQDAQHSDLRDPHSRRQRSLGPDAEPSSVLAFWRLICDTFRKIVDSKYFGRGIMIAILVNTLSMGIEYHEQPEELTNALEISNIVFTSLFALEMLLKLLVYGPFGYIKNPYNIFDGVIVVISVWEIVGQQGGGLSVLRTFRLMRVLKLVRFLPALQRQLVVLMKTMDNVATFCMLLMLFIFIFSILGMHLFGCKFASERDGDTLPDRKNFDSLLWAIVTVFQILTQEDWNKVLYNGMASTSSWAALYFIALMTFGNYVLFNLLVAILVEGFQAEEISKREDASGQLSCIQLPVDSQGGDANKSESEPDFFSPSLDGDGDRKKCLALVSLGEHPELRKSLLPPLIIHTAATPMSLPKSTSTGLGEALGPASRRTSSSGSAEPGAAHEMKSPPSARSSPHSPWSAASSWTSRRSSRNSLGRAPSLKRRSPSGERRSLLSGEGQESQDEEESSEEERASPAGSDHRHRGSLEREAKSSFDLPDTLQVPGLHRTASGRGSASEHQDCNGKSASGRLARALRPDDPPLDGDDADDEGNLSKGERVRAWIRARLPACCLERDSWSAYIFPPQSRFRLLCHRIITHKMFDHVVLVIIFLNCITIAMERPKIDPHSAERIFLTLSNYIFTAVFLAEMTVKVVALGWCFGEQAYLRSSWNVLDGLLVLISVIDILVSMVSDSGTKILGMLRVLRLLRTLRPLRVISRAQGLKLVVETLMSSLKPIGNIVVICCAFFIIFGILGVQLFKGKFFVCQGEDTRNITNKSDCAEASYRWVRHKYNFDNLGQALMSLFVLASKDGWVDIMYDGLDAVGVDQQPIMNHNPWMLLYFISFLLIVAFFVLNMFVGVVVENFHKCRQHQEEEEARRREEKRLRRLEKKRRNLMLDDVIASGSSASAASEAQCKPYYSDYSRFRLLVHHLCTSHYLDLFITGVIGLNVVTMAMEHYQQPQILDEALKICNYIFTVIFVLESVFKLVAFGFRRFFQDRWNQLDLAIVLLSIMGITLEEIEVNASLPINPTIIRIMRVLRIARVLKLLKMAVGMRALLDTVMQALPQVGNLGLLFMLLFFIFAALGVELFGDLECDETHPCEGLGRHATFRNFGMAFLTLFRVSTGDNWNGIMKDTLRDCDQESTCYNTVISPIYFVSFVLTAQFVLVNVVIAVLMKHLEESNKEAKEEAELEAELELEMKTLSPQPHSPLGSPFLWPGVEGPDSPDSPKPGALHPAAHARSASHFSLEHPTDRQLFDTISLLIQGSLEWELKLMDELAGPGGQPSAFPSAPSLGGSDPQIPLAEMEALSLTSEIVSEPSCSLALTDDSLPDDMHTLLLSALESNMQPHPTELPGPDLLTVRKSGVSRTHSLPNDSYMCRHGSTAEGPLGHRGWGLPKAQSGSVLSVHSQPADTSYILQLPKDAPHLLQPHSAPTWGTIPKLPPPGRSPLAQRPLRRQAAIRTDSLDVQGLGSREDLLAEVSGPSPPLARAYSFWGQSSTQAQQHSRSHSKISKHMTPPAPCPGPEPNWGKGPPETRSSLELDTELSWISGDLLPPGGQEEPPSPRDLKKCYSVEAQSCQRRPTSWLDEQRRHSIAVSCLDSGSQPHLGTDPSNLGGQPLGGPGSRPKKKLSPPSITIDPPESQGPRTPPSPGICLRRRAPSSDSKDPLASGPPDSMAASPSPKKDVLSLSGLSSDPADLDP
Description: Effect on T-Type Ca Channel Expressed in Mammalian Cells (BHK Cells)
(§1) An electrophysiological evaluation was carried out by use of BHK (baby hamster kidney) cells in which T-type Ca channel (α1G) was expressed according to the method of Wakamori M et al. (Wakamori M et al.: J Biol Chem 273, 34857-34867, 1998) based on the whole cell patch clamp method. Each Ca-ion current was measured through a patch clamp amplifier as an inward current when depolarization pulse (−20 mV) was applied to cells maintained at a membrane potential of −80 mV. Each compound was dissolved in extracellular solution and applied with perfusion. At 5 minutes after the application, any variation in Ca-ion current was measured. The results are shown in Table 1 as Ca current inhibition (%, average value) of the compound of the present invention to Ca current (100%) in vehicle control.

T-type Ca channel (α1G) [2] = target: T1, T-type Ca channel (α1G); assay: Effect on T-type Ca channel expressed in BHK cells (whole cell patch clamp), Pharmacological Test Example 2; details: BHK cells expressing T-type Ca channel (α1G), depolarization pulse −20 mV from −80 mV, 5 minutes after application, average value vs vehicle control (100%), read-out: Inhibition (%) of Ca current, T-type
Description: (§2) Effect on L-Type and T-Type Ca Channel Expressed in Mammalian Cells (BHK Cells)
as §1, with “which L-type Ca channel or” for “which”, “pulse (10 mV in L-type Ca channel, −20 mV in T-type Ca channel)” for “pulse (−20 mV)”, “mV. Compound (9)” for “mV. Each compound”, “Table 2” for “Table 1”

L-type Ca channel = assay: Effect on L-type Ca channel expressed in BHK cells (whole cell patch clamp), Pharmacological Test Example 2; details: 10 μM; BHK cells expressing L-type Ca channel; depolarization pulse 10 mV from −80 mV; 5 minutes after application; average value vs vehicle control (100%)
Description: as §2
as §1, with “which L-type Ca channel or” for “which”, “pulse (10 mV in L-type Ca channel, −20 mV in T-type Ca channel)” for “pulse (−20 mV)”, “mV. Compound (9)” for “mV. Each compound”, “Table 2” for “Table 1”

inhibition at 10 µM (T-type Ca channel (α1G) [1])	inhibition at 10 µM (T-type Ca channel (α1G) [2])	SMILES	Inhibition (%) of Ca current, L-type (L-type Ca channel)
23.9%		Cc1nc(C)c(P2(=O)OCC(C)(C)CO2)c(-c2cccc([N+](=O)[O-])c2)c1C(=O)OCCN(Cc1ccccc1)c1ccccc1 [Compound (4)]	
53.9%		Cc1nc(C)c(P2(=O)OCC(C)(C)CO2)c(-c2cccc([N+](=O)[O-])c2)c1C(=O)OCCNc1ccccc1 [Compound (5)]	
43.6%		Cc1nc(C)c(P2(=O)OCC(C)(C)CO2)c(-c2cccc([N+](=O)[O-])c2)c1C(=O)OCCN1CCN(C(c2ccccc2)c2ccccc2)CC1 [Compound (6)]	
45.8%		COC(=O)c1c(C)nc(C)c(C(=O)OC2CCCN(Cc3ccccc3)C2)c1-c1cccc([N+](=O)[O-])c1 (stereo not shown) [Compound (7)]	
30%		COC(=O)C1=C(C)N(C)C(C)=C(C(=O)OC2CCCN(Cc3ccccc3)C2)C1c1cccc([N+](=O)[O-])c1 (stereo not shown) [Compound (8)]	
	48.9%	CC1=C(C(=O)OCCN(Cc2ccccc2)c2ccccc2)C(c2cccc([N+](=O)[O-])c2)C(P2(=O)OCC(C)(C)CO2)=C(C)N1CCN1CCOCC1 (stereo not shown) [Compound (9)]	9.9%
